Results reported in ChEMBL document CHEMBL4270614, “Tuning the biological activity of cationic anthraquinone analogues specifically toward Staphylococcus aureus” (Eur J Med Chem, 2018).
Values after ≈ are worked out from the molar mass of the structure shown.

Experiments:
Escherichia coli [1] = assay: Antibacterial activity against Escherichia coli ATCC 25922 measured after 12 to 18 hrs; type: functional
[2] = Selectivity index, ratio of IC50 for human BEAS2B cells to IC50 for human A549 cells; details: BEAS2B cells versus A549 cells, read-out: Ratio IC50
Staphylococcus aureus [3] = assay: Antibacterial activity against methicillin-resistant Staphylococcus aureus ATCC 33591 measured after 12 to 18 hrs; type: functional
CCD-841CoN = assay: Cytotoxicity against human CCD-841-CoN cells after 48 hrs by MTT assay; type: cell-based
A549 = assay: Cytotoxicity against human A549 cells after 48 hrs by MTT assay; type: cell-based; details: A549, 48 h
[4] = Selectivity index, ratio of IC50 for human CCD-841-CoN cells to IC50 for human COLO205 cells; details: CCD-841-CoN cells versus COLO205 cells, read-out: Ratio IC50
COLO 205 = assay: Cytotoxicity against human COLO205 cells after 48 hrs by MTT assay; type: cell-based; details: COLO 205, 48 h
Staphylococcus aureus [5] = assay: Antibacterial activity against methicillin-resistant Staphylococcus aureus ATCC 43300 measured after 12 to 18 hrs; type: functional
BEAS-2B = assay: Cytotoxicity against human BEAS2B cells after 48 hrs by MTT assay; type: cell-based
Staphylococcus aureus [6] = assay: Antibacterial activity against Staphylococcus aureus ATCC 25923 measured after 12 to 18 hrs; type: functional
Escherichia coli [7] = assay: Antibacterial activity against Escherichia coli ATCC 25922; type: functional
Staphylococcus aureus [8] = assay: Antibacterial activity against Staphylococcus aureus ATCC 25923; type: functional

Row | Structure (SMILES) | MIC (Escherichia coli [1]) | selectivity ratio [2] | MIC (Staphylococcus aureus [3]) | IC50 (CCD-841CoN) | IC50 (A549) | selectivity ratio [4] | IC50 (COLO 205) | MIC (Staphylococcus aureus [5]) | IC50 (BEAS-2B) | MIC (Staphylococcus aureus [6]) | MIC (Escherichia coli [7]) | MIC (Staphylococcus aureus [8])
1 | COc1ccc(-n2n[n+](C)c3c2C(=O)c2ccccc2C3=O)cc1.O=S(=O)([O-])C(F)(F)F | > 128 µg/mL | 7.44 | 0.5 µg/mL | 5.89 µg/mL | 0.78 µg/mL | 8.41 | 0.7 µg/mL | 2 µg/mL | 5.8 µg/mL | 1 to 2 µg/mL | – | –
2 | C[n+]1nn(-c2ccc(F)cc2)c2c1C(=O)c1ccccc1C2=O.O=S(=O)([O-])C(F)(F)F | > 128 µg/mL | 6.44 | 0.5 µg/mL | 8.16 µg/mL | 2.22 µg/mL | 2.85 | 2.86 µg/mL | 1 µg/mL | 14.2 µg/mL | 1 µg/mL | – | –
3 | CCCCCCCC[n+]1nn(-c2ccc([N+](=O)[O-])cc2)c2c1C(=O)c1ccccc1C2=O.O=S(=O)([O-])C(F)(F)F | – | 4.76 | 16 µg/mL | 31 µg/mL | 15.6 µg/mL | 3.63 | 8.53 µg/mL | 32 µg/mL | 21 µg/mL | 8 µg/mL | – | –
4 | CCCCCC[n+]1nn(-c2ccc([N+](=O)[O-])cc2)c2c1C(=O)c1ccccc1C2=O.O=S(=O)([O-])C(F)(F)F | – | 0.79 | 1 µg/mL | 40.2 µg/mL | 48.9 µg/mL | 1.89 | 21.2 µg/mL | 128 µg/mL | 38.6 µg/mL | 2 to 4 µg/mL | – | –
5 | CC[n+]1nn(-c2ccc([N+](=O)[O-])cc2)c2c1C(=O)c1ccccc1C2=O.O=S(=O)([O-])C(F)(F)F | – | 5.89 | 1 to 2 µg/mL | 51.3 µg/mL | 7.4 µg/mL | 6.64 | 7.72 µg/mL | 4 to 8 µg/mL | 43.6 µg/mL | 8 to 16 µg/mL | – | –
6 | COc1ccc(-n2n[n+](-c3ccc(OC)c(OC)c3)c3c2C(=O)c2ccccc2C3=O)cc1OC.O=S(=O)([O-])C(F)(F)F | > 128 µg/mL | 2.35 | 2 µg/mL | – | 1.6 µg/mL | – | – | 4 µg/mL | 3.76 µg/mL | 4 µg/mL | – | –
7 | CC[n+]1nn(-c2ccc(OC)cc2)c2c1C(=O)c1ccccc1C2=O.O=S(=O)([O-])C(F)(F)F | 128 µg/mL | 6.85 | 2 µg/mL | 7.85 µg/mL | 0.73 µg/mL | 9.57 | 0.82 µg/mL | 2 µg/mL | 5 µg/mL | 4 to 8 µg/mL | – | –
8 | CCCC[n+]1nn(-c2ccc([N+](=O)[O-])cc2)c2c1C(=O)c1ccccc1C2=O.O=S(=O)([O-])C(F)(F)F | – | 1.11 | 2 µg/mL | 42.8 µg/mL | 44.9 µg/mL | 0.99 | 43.2 µg/mL | 8 to 16 µg/mL | 49.8 µg/mL | 4 µg/mL | – | –
9 | C[n+]1nn(-c2ccc(C#N)cc2)c2c1C(=O)c1ccccc1C2=O.O=S(=O)([O-])C(F)(F)F | > 128 µg/mL | – | 1 µg/mL | 32.6 µg/mL | 5.2 µg/mL | 5.52 | 5.91 µg/mL | 2 µg/mL | 30.1 µg/mL | 2 µg/mL | – | –
10 | CCCCCCCCCC[n+]1nn(-c2ccc([N+](=O)[O-])cc2)c2c1C(=O)c1ccccc1C2=O.O=S(=O)([O-])C(F)(F)F | – | 1.05 | 8 µg/mL | 30.6 µg/mL | 7.02 µg/mL | 4.2 | 7.29 µg/mL | 8 to 16 µg/mL | 7.39 µg/mL | 2 to 4 µg/mL | – | –
11 | CC[n+]1nn(-c2ccc(Cl)cc2)c2c1C(=O)c1ccccc1C2=O.O=S(=O)([O-])C(F)(F)F | > 128 µg/mL | 4.96 | 1 µg/mL | 6.65 µg/mL | 0.85 µg/mL | 8.53 | 0.78 µg/mL | 2 µg/mL | 4.22 µg/mL | 2 to 4 µg/mL | – | –
12 | CCCCCCCCn1n[n+](CC)c2c1C(=O)c1ccccc1C2=O.O=S(=O)([O-])C(F)(F)F | – | – | – | – | – | – | – | – | – | – | > 128 µg/mL | 0.25 to 0.5 µg/mL
13 | C[n+]1nn(-c2ccc([N+](=O)[O-])cc2)c2c1C(=O)c1ccccc1C2=O.O=S(=O)([O-])C(F)(F)F | > 128 µg/mL | 15.1 | 1 µg/mL | 55.8 µg/mL | 3.5 µg/mL | 12 | 4.64 µg/mL | 2 µg/mL | 52.9 µg/mL | 2 µg/mL | – | –
14 | NC[C@@H]1O[C@H](O[C@H]2[C@@H](O)[C@H](O[C@@H]3[C@@H](O)[C@H](N)C[C@H](N)[C@H]3O[C@H]3O[C@H](CN)[C@@H](O)[C@H](O)[C@H]3N)O[C@@H]2CO)[C@H](N)[C@@H](O)[C@@H]1O [FRAMYCETIN] | 2 µg/mL (≈ 3.25 µM) | – | 256 µg/mL (≈ 416 µM) | – | – | – | – | > 256 µg/mL | – | 2 to 4 µg/mL (≈ 3.25 to 6.51 µM) | – | –
15 | CN[C@H](CC(C)C)C(=O)N[C@H]1C(=O)N[C@@H](CC(N)=O)C(=O)N[C@H]2C(=O)N[C@H]3C(=O)N[C@H](C(=O)N[C@H](C(=O)O)c4cc(O)cc(O)c4-c4cc3ccc4O)[C@H](O)c3ccc(c(Cl)c3)Oc3cc2cc(c3O[C@@H]2O[C@H](CO)[C@@H](O)[C@H](O)[C@H]2O[C@H]2C[C@](C)(N)[C@H](O)[C@H](C)O2)Oc2ccc(cc2Cl)[C@H]1O [VANCOMYCIN] | > 256 µg/mL | – | – | – | – | – | – | 32 µg/mL (≈ 22.1 µM) | – | – | – | –
